The values that follow come from patent publication US12466809B2, “CDK2/5 degraders and uses thereof” (DANA-FARBER CANCER INSTITUTE, INC., priority 2019, dated 2025).

Chain of CDK5/p25 (Q00535 whole entry): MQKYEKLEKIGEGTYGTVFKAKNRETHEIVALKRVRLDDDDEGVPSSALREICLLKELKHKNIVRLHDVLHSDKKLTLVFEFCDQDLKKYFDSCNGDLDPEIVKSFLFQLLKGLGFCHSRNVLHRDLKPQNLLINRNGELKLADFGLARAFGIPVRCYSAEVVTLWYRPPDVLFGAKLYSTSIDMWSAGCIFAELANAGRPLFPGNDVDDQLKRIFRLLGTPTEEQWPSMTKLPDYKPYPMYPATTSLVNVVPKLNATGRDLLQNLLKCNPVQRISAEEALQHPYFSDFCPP
Chain of CDK5/p25 (Q15078 99-307 partner): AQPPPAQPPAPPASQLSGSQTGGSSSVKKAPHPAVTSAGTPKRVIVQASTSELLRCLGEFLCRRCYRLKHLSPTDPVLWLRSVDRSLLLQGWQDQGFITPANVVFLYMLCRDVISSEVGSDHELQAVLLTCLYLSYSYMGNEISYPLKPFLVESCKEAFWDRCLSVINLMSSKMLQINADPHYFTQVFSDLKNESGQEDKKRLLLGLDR

One assay addresses CDK5/p25 (Homo sapiens (Human), UniProt Q00535). In words: Invitrogen Z'-LYTE kinase assay CDK5/p25 (assay ID 318, Km app, 10-point titration). It is filed as biochemical. To be noted: CDK5/p25, Km app ATP. The source says:
(§1) CDK2 and CDK5 IC50 data were attained through the use of Invitrogen™ commercial assays. The method for CDK2 (assay ID: 315, kinase|Z'-LYTE™|CDK2/Cyclin A|Km app) used a 10-point titration. The method for CDK5 (assay ID: 318, kinase|Z'-LYTE™|CDK5/p25|Km app) used a 10-point titration.
`NC(=O)c1c(F)cccc1Nc1nc(NC2CCN(S(=O)(=O)CCNC(=O)CCCCCCCOc3cccc4c3C(=O)N(C3CCC(=O)NC3=O)C4=O)CC2)ncc1Br` (centres unmarked) [Compound 6, 2-((5-bromo-2-((1-((2-(8-((2-(2,6-dioxopiperidin-3-yl)-1,3-dioxoisoindolin-4-yl)oxy)octanamido)ethyl)sulfonyl)piperidin-4-yl)amino)pyrimidin-4-yl)amino)-6-fluorobenzamide] gave an IC50 of 11.8 nM.

As for `NC(=O)c1c(F)cccc1Nc1nc(NC2CCN(S(=O)(=O)CCNC(=O)CCCCCCCCCCc3cccc4c3CN(C3CCC(=O)NC3=O)C4=O)CC2)ncc1Br` (centres unmarked) [Compound 15, 2-((5-bromo-2-((1-((2-(11-(2-(2,6-dioxopiperidin-3-yl)-1-oxoisoindolin-4-yl)undecanamido)ethyl)sulfonyl)piperidin-4-yl)amino)pyrimidin-4-yl)amino)-6-fluorobenzamide], the 50% inhibitory concentration (IC50) was found to be 18.2 nM.

`NC(=O)c1c(F)cccc1Nc1nc(NC2CCN(S(=O)(=O)CCNC(=O)CCCCCCCCC#Cc3cccc4c3CN(C3CCC(=O)NC3=O)C4=O)CC2)ncc1Br` (centres unmarked) [Compound 14, 2-((5-bromo-2-((1-((2-(11-(2-(2,6-dioxopiperidin-3-yl)-1-oxoisoindolin-4-yl)undec-10-ynamido)ethyl)sulfonyl)piperidin-4-yl)amino)pyrimidin-4-yl)amino)-6-fluorobenzamide] yielded a half-maximal inhibitory concentration (IC50) of 31.2 nM.

`Cc1ncsc1-c1ccc([C@H](C)NC(=O)[C@@H]2C[C@@H](O)CN2C(=O)[C@@H](NC(=O)CCC(=O)NCCS(=O)(=O)N2CCC(Nc3ncc(Br)c(Nc4cccc(F)c4C(N)=O)n3)CC2)C(C)(C)C)cc1` [Compound 12, N^1-(2-((4-((5-bromo-4-((2-carbamoyl-3-fluorophenyl)amino)pyrimidin-2-yl)amino)piperidin-1-yl)sulfonyl)ethyl)-N^4—((S)-1-((2S,4R)-4-hydroxy-2-(((S)-1-(4-(4-methylthiazol-5-yl)phenyl)ethyl)carbamoyl)pyrrolidin-1-yl)-3,3-dimethyl-1-oxobutan-2-yl)succinamide] showed an IC50 of 3.7 nM.

Molecule `NC(=O)c1c(F)cccc1Nc1nc(NC2CCN(S(=O)(=O)CCNC(=O)CCC(=O)NCCCCCNc3cccc4c3C(=O)N(C3CCC(=O)NC3=O)C4=O)CC2)ncc1Br` (centres unmarked) [Compound 13, N^1-(2-((4-((5-bromo-4-((2-carbamoyl-3-fluorophenyl)amino)pyrimidin-2-yl)amino)piperidin-1-yl)sulfonyl)ethyl)-N^4-(5-((2-(2,6-dioxopiperidin-3-yl)-1,3-dioxoisoindolin-4-yl)amino)pentyl)succinamide] gave an IC50 of 4.3 nM.

Molecule `Cc1ncsc1-c1ccc([C@H](C)NC(=O)[C@@H]2C[C@@H](O)CN2C(=O)[C@@H](NC(=O)CCOCCOCCC(=O)NCCS(=O)(=O)N2CCC(Nc3ncc(Br)c(Nc4cccc(F)c4C(N)=O)n3)CC2)C(C)(C)C)cc1` [Compound 11, (2S,4R)-1-((S)-16-((4-((5-bromo-4-((2-carbamoyl-3-fluorophenyl)amino)pyrimidin-2-yl)amino)piperidin-1-yl)sulfonyl)-2-(tert-butyl)-4,13-dioxo-7,10-dioxa-3,14-diazahexadecanoyl)-4-hydroxy-N—((S)-1-(4-(4-methylthiazol-5-yl)phenyl)ethyl)pyrrolidine-2-carboxamide] gave an IC50 of 4.8 nM.

`O=C(CCCCCCCCC#Cc1cccc2c1CN(C1CCC(=O)NC1=O)C2=O)NCCS(=O)(=O)N1CCC(Nc2ncc(Br)c(Nc3cccc4c3OCO4)n2)CC1` (centres unmarked) [Compound 16, N-(2-((4-((4-(benzo[d][1,3]dioxol-4-ylamino)-5-bromopyrimidin-2-yl)amino)piperidin-1-yl)sulfonyl)ethyl)-11-(2-(2,6-dioxopiperidin-3-yl)-1-oxoisoindolin-4-yl)undec-10-ynamide] registered an IC50 of 4370 nM.

For a further assay, the target named is CDK2/Cyclin A (Homo sapiens (Human), UniProt P24941). Briefly: Invitrogen Z'-LYTE kinase assay CDK2/Cyclin A (assay ID 315, Km app, 10-point titration). Format: biochemical. Conditions: Km app ATP.
Text: as §1
Molecule `NC(=O)c1c(F)cccc1Nc1nc(NC2CCN(S(=O)(=O)CCNC(=O)CCCCCCCOc3cccc4c3C(=O)N(C3CCC(=O)NC3=O)C4=O)CC2)ncc1Br` (centres unmarked) [Compound 6, 2-((5-bromo-2-((1-((2-(8-((2-(2,6-dioxopiperidin-3-yl)-1,3-dioxoisoindolin-4-yl)oxy)octanamido)ethyl)sulfonyl)piperidin-4-yl)amino)pyrimidin-4-yl)amino)-6-fluorobenzamide] yielded an IC50 of 17.1 nM.

The term IC50 denotes the concentration that gives 50% inhibition.
